Like-named read-outs stand apart in the source and are kept apart here.
How the values were obtained:
3T3-L1 cells = assay: [1,2-3H]2-Deoxy-D-glucose (2-deoxyglucose) uptake; type: cell-based; conditions: for CPM (glucose uptake): 3T3-L1 cells
Experimental: 1. [1,2-^3H]2-Deoxy-D-glucose (2-deoxyglucose) Uptake: Cells, 3T3-L adipocytes, were grown and differentiated as described below. Prior to [^3H]2-deoxyglucose uptake, cells were switched to DMEM with 0.1% bovine serum albumin for 6 h. The [^3H]2-deoxyglucose uptake was assayed as described (D. R. Cooper, J. E. Watson, N. Patel, P. Illingworth, M. Cevedo-Duncan, J. Goodnight, C. E. Chalfant, and H. Mischak, 1999. Ectopic expression of protein kinase CbetaII, -delta, and -epsilon, but not-betaI or -zeta, provide for insulin stimulation of glucose uptake in NIH-3T3 cells. Arch. Biochem. Biophys., 372:69-79; T. P Ciraldi, O. G. Kolterman, and J. M. Olesky, 1981. Mechanism of the postreceptor defect in insulin action in human obesity: decrease in glucose transport system activity. J. Clin Invest., 68:875-880.). […] Uptake was measured by the addition of 10 nmol of [^3H] 2-deoxyglucose (50-150 μCi/μmol) and followed by incubation for 6 min at 37° C. The uptake was terminated by aspiration of media and cell monolayers were washed three times with cold DPBS. Cells were lysed with 1 ml of 1% (w/v) SDS, and radioactivity determined by liquid scintillation counting. The 2-Deoxyglucose uptake refers to transport of the analogue across the plasma membrane operating in tandem with its phosphorylation by hexokinase.

[1] = target: T1, Fatty Acid Binding Protein 4 (FABP4) (Homo sapiens, UniProt P15090); assay: FABP4 Inhibitor/Ligand Screening Kit (fluorescence); conditions: based on contribution across all actives, read-out: Predicted IC50
T1 construct: purchased Cayman, Ann Arbor, Mich
Experimental: Fatty Acid Binding Protein 4 (FABP4) inhibition was determined using the Fatty Acid Binding Protein 4 (FABP4) Inhibitor/Ligand Screening Kit (Cayman, Ann Arbor, Mich.). […] Potential inhibitors/ligands of the FABP4 protein were incubated to FABP4 in assay buffer for 15 minutes at room temperature. Arachidonic acid was used as a known inhibitor standard for comparison. The positive control wells received no inhibitor/ligand (i.e., no arachidonic acid or extract) and the negative control wells received no FABP4. The extracts, in solution, were then exposed to a developer that will fluoresce when bound to FABP4. If FABP4 is inhibited, reduction in fluorescence yield is observed. Fluorescence was quantified using a Synergy 4 plate reader that is tuned to excitation/emission wavelengths of 370 nm and 475 nm, respectively. The fluorescence of the negative controls was subtracted from the positive control wells, and the fluorescence from the “undetected” wells was subtracted from the corresponding “detected” wells. An IC50 value was determined based on the percent fluorescence of the corrected extract wells relative to the corrected positive controls.

[2] = range across SRB Extracts 1 to 14

T1 sequence (P15090 whole entry, species assumed): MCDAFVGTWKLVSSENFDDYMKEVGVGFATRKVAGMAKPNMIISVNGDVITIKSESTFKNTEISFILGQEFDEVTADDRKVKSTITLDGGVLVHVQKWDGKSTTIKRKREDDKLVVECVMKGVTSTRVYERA

| IC50 ([1]; in SRB Extract 6) | IC50 [1, 2] | Molecule | other results |
| --- | --- | --- | --- |
|  |  | Insulin: insulin, comparator for glucose uptake stimulation | Increase over 200 nM Insulin (3T3-L1 cells; 50 nM insulin): 0.6; Increase over Control (3T3-L1 cells; 50 nM insulin): 1.1; Max CPM (3T3-L1 cells; 50 nM insulin): 149 CPM; Increase over 200 nM Insulin (3T3-L1 cells; 100 nM insulin): 0.6; Increase over Control (3T3-L1 cells; 100 nM insulin): 1.2; Max CPM (3T3-L1 cells; 100 nM insulin): 157 CPM; Increase over Control (3T3-L1 cells; 200 nM insulin): 2.0; Max CPM (3T3-L1 cells; 200 nM insulin): 266 CPM; CPM (glucose uptake) (3T3-L1 cells; insulin 50 nM): 149 CPM; CPM (glucose uptake) (3T3-L1 cells; insulin 100 nM): 157 CPM; CPM (glucose uptake) (3T3-L1 cells; insulin 200 nM): 266 CPM |
| 40 µM | 17.4 to 69.5 µM | CCCCCCCCCCCC/C=C\CC/C=C\CC[C@@H](O)[C@H](O)CCCCCCCCCCC1=C[C@H](C)OC1=O [Montecristin] |  |
| 73.3 µM | 61 to 85 µM | 4,5-Dihydro-4-hydroxy-5-methyl-2-tetradecyl-2(3H)-furanone |  |
| 60.5 µM | 21.3 to 25.7 µM | C=C(CCC(C)C1CCC2(C)C3CCC4CC(O)CCC45CC35CCC12C)C(C)C (centres unmarked) [14-Methyl-9,19-cycloergost-24(28)-en-3-ol] |  |
| 24.7 µM | 4.89 to 56 µM | CCCCC/C=C\C/C=C\CCCCCCCC(=O)OCC(CO)OC(=O)CCCCCCC/C=C\C/C=C\CCCCC (centres unmarked) [Glycerol 1,2-di-(9Z,12Z-octadecadienoate)] |  |
| 199 µM | 17.4 to 160 µM | CC1CCC2(C)CCC3(C)C(=CCC4C5(C)CCCC(C)C5CCC43C)C2C1C (centres unmarked) [24-Nor-12-ursene] |  |
| 96.8 µM | 38.9 to 117 µM | CCCCCCCCC=CCCCCCCCC1CC(O)C(=O)O1 (centres unmarked) [5-(8-Heptadecenyl)dihydro-3-hydroxy-2(3H)-furanone] |  |
| 29.7 µM | 7.99 to 101 µM | CCCCCCCCCCCCCCCCCCCCCCCCCCCCCCOC(=O)C=Cc1ccc(O)c(O)c1 [3-(3,4-Dihydroxyphenyl)-2-propenoicacid Triacontyl ester] |  |
| 91 µM | 28.3 to 90.3 µM | CC1(C)CCC2(C)CCC3(C)C(=C2C1)C=CC1C2(C)CCCC(C)(C)C2CCC13C (centres unmarked) [11,13(18)-Oleanadiene] |  |
| 69.4 µM | 44.2 to 80.4 µM | CC[C@H]1CC[C@H]2[C@@H]3CC(O)C4CC(O)C(O)C[C@]4(C)[C@H]3CC[C@]12C (some centres unmarked) [Pregnane-2,3,6-triol] |  |
| 26.5 µM | 6.96 to 81.2 µM | CC(=O)CC/C=C(\C)CC/C=C(\C)CC/C=C(\C)CC/C=C(\C)CC/C=C(\C)CC/C=C(\C)CC/C=C(\C)CCC=C(C)C [Bombiprenone] |  |
|  | 29.9 to 61.3 µM | 24-Nor-4(23),9(11)-fernadiene |  |

— US20100015258A1, “Rice Bran Extracts and Methods of Use Thereof” (priority 2008, published 2010)
